# pIC50: −log10 of the molar value.
# Tested on: MEK
# Experiment: Cellular Assay for Measuring MEK Inhibition (inhibition of ERK phosphorylation in C26 cells, Western blot)
# Format: cell-based, murine
# Conditions: for % Inhibition @ 0.1 μM / % Inhibition @ 1 μM / % Inhibition @ 10 μM: ERK phosphorylation in C26 cells; for pIC50: inhibition of ERK phosphorylation in murine colon 26 (C26) carcinoma cells, determined graphically from dose response curve
# Procedure: The evaluation of the compounds as MEK inhibitors was performed in an assay that measures their ability to inhibit phosphorylation of MAP kinase […]) in murine colon 26 (C26) carcinoma cells. Since ERK1 and ERK2 represent the only known substrates for MEK, measurement of inhibition of ERK phosphorylation in cells provides direct readout of cellular MEK inhibition by the compounds of the invention. Briefly, the assay involves treating exponentially growing C26 cells with varying concentrations of the test compound (or vehicle control) for […] at 37° C. Cells are then rinsed free of compound/vehicle and lysed in a solution containing 70 mM NaCl, 50 mM glycerol phosphate, 10 mM HEPES, pH 7.4, 1% Triton X-100, 1 mM Na3VO4, 100 μM PMSF, 10 μM leupeptin and 10 μM pepstatin. Supernatants are then subjected to gel electrophoresis and Western blotting using a primary antibody recognizing dually phosphorylated ERK1 and ERK2. To evaluate total MAPK levels, blots were subsequently ‘stripped’ and re-probed with a 1:1 mixture of polyclonal antibodies recognizing unphosphorylated ERK1 and ERK2.
smiles,measurement,value
"CCC(O)CONC(=O)c1cc(F)c(F)c(F)c1Nc1ccc(I)cc1C (stereo not drawn) [Example 106, 3,4,5-Trifluoro-N-(2-hydroxy-butoxy)-2-(4-iodo-2-methyl-phenylamino)-benzamide]",% Inhibition @ 0.1 μM,13.2%
same,% Inhibition @ 1 μM,81.6%
"Cc1cc(I)ccc1Nc1c(C(=O)NOCCCO)cc(Br)c(F)c1F [Example 102, 5-Bromo-3,4-difluoro-N-(3-hydroxy-propoxy)-2-(4-iodo-2-methyl-phenylamino)-benzamide]",pIC50,6.56
"O=C(NOCC(O)CO)c1cc(F)c(F)c(F)c1Nc1ccc(I)cc1Cl (stereo not drawn) [Example 87, 2-(2-Chloro-4-iodo-phenylamino)-N-(2,3-dihydroxy-propoxy)-3,4,5-trifluoro-benzamide]",pIC50,7.60
"CCC(O)CONC(=O)c1ccc(F)c(F)c1Nc1ccc(F)cc1F (stereo not drawn) [Example 117, 2-(2,4-Difluoro-phenylamino)-3,4-difluoro-N-(2-hydroxy-butoxy)-benzamide]",% Inhibition @ 0.1 μM,0%
same,% Inhibition @ 1 μM,66.7%
same,% Inhibition @ 10 μM,86.9%
"CCC(O)CONC(=O)c1cc(Cl)c(F)c(F)c1Nc1ccc(I)cc1C (stereo not drawn) [Example 111, 5-Chloro-3,4-difluoro-N-(2-hydroxy-butoxy)-2-(4-iodo-2-methyl-phenylamino)-benzamide]",% Inhibition @ 0.1 μM,78%
same,% Inhibition @ 1 μM,93.4%
"Cc1cc(I)ccc1Nc1c(C(=O)NOCC(O)COc2ccccc2)cc(Cl)c(F)c1F (stereo not drawn) [Example 190, 5-Chloro-3,4-difluoro-N-(2-hydroxy-3-phenoxy-propoxy)-2-(4-iodo-2-methyl-phenylamino)-benzamide]",% Inhibition @ 0.1 μM,51.5%
same,% Inhibition @ 1 μM,94.6%
"O=C(NOCC(O)CN1CCOCC1)c1cc(Cl)c(F)c(F)c1Nc1ccc(F)cc1F (stereo not drawn) [Example 154, 5-Chloro-2-(2,4-difluoro-phenylamino)-3,4-difluoro-N-(2-hydroxy-3-morpholin-4-yl-propoxy)-benzamide]",% Inhibition @ 1 μM,8.9%
same,% Inhibition @ 10 μM,51%
"CC(C)(CO)CONC(=O)c1ccc(F)c(F)c1Nc1ccc(I)cc1F [Example 202, 3,4-Difluoro-2-(2-fluoro-4-iodo-phenylamino)-N-(3-hydroxy-2,2-dimethyl-propoxy)-benzamide]",% Inhibition @ 0.1 μM,59.7%
same,% Inhibition @ 1 μM,94.6%
"Cc1cc(I)ccc1Nc1c(C(=O)NOCC(O)COc2ccccc2)ccc(F)c1F (stereo not drawn) [Example 188, 3,4-Difluoro-N-(2-hydroxy-3-phenoxy-propoxy)-2-(4-iodo-2-methyl-phenylamino)-benzamide]",pIC50,7.36
"O=C(NOCC(O)CN1CCOCC1)c1cc(F)c(F)c(F)c1Nc1ccc(I)cc1Cl (stereo not drawn) [Example 145, 2-(2-Chloro-4-iodo-phenylamino)-3,4,5-trifluoro-N-(2-hydroxy-3-morpholin-4-yl-propoxy)-benzamide]",pIC50,7.00
"O=C(NOCC1(CO)CC1)c1cc(F)c(F)c(F)c1Nc1ccc(I)cc1F [Example 219, 3,4,5-Trifluoro-2-(2-fluoro-4-iodo-phenylamino)-N-(1-hydroxymethyl-cyclopropylmethoxy)-benzamide]",% Inhibition @ 0.1 μM,65.3%
same,% Inhibition @ 1 μM,96.2%
"O=C(NOCC1CC1CO)c1cc(Cl)c(F)c(F)c1Nc1ccc(F)cc1F (stereo not drawn) [Example 214, 5-Chloro-2-(2,4-difluoro-phenylamino)-3,4-difluoro-N-(2-hydroxymethyl-cyclopropylmethoxy)-benzamide]",% Inhibition @ 1 μM,15.4%
same,% Inhibition @ 10 μM,38.2%
"CC(O)CONC(=O)c1cc(F)c(F)c(F)c1Nc1ccc(I)cc1Cl (stereo not drawn) [Example 160, 2-(2-Chloro-4-iodo-phenylamino)-3,4,5-trifluoro-N-(2-hydroxy-propoxy)-benzamide]",% Inhibition @ 0.1 μM,71.9%
same,% Inhibition @ 1 μM,96.8%
"CC(CO)ONC(=O)c1ccc(F)c(F)c1Nc1ccc(F)cc1F (stereo not drawn) [Example 133, 2-(2,4-Difluoro-phenylamino)-3,4-difluoro-N-(2-hydroxy-1-methyl-ethoxy)-benzamide]",% Inhibition @ 0.1 μM,0%
same,% Inhibition @ 1 μM,26.4%
"CC(O)CONC(=O)c1ccc(F)c(F)c1Nc1ccc(I)cc1Cl (stereo not drawn) [Example 156, 2-(2-Chloro-4-iodo-phenylamino)-3,4-difluoro-N-(2-hydroxy-propoxy)-benzamide]",pIC50,7.96
"CC(O)CONC(=O)c1cc(Cl)c(F)c(F)c1Nc1ccc(I)cc1Cl (stereo not drawn) [Example 161, 5-Chloro-2-(2-chloro-4-iodo-phenylamino)-3,4-difluoro-N-(2-hydroxy-propoxy)-benzamide]",pIC50,7.82
"COCC(O)CONC(=O)c1ccc(F)c(F)c1Nc1ccc(F)cc1F (stereo not drawn) [Example 226, 2-(2,4-Difluoro-phenylamino)-3,4-difluoro-N-(2-hydroxy-3-methoxy-propoxy)-benzamide]",% Inhibition @ 1 μM,41.5%
same,% Inhibition @ 10 μM,84.1%
"O=C(NOCC(O)COc1ccccc1)c1cc(F)c(F)c(F)c1Nc1ccc(I)cc1Cl (stereo not drawn) [Example 184, 2-(2-Chloro-4-iodo-phenylamino)-3,4,5-trifluoro-N-(2-hydroxy-3-phenoxy-propoxy)-benzamide]",% Inhibition @ 0.1 μM,16.1%
same,% Inhibition @ 1 μM,82.5%
"CC(C)(O)CONC(=O)c1cc(Cl)c(F)c(F)c1Nc1ccc(F)cc1F [Example 180, 5-Chloro-2-(2,4-difluoro-phenylamino)-3,4-difluoro-N-(2-hydroxy-2-methyl-propoxy)-benzamide]",% Inhibition @ 1 μM,34%
same,% Inhibition @ 10 μM,58.6%
"CCC(O)CONC(=O)c1ccc(F)c(F)c1Nc1ccc(Br)cc1F (stereo not drawn) [Example 118, 2-(4-Bromo-2-fluoro-phenylamino)-3,4-difluoro-N-(2-hydroxy-butoxy)-benzamide]",% Inhibition @ 0.1 μM,74.6%
same,% Inhibition @ 1 μM,95.6%
"O=C(NOCC(O)CN1CCOCC1)c1cc(Cl)c(F)c(F)c1Nc1ccc(I)cc1F (stereo not drawn) [Example 152, 5-Chloro-3,4-difluoro-2-(2-fluoro-4-iodo-phenylamino)-N-(2-hydroxy-3-morpholin-4-yl-propoxy)-benzamide]",% Inhibition @ 0.1 μM,59.2%
same,% Inhibition @ 1 μM,90.3%
"O=C(NOCC1(CO)CC1)c1ccc(F)c(F)c1Nc1ccc(Br)cc1F [Example 223, 2-(4-Bromo-2-fluoro-phenylamino)-3,4-difluoro-N-(1-hydroxymethyl-cyclopropylmethoxy)-benzamide]",% Inhibition @ 0.1 μM,5.2%
same,% Inhibition @ 1 μM,56.7%
"O=C(NOCC(O)C(F)(F)F)c1ccc(F)c(F)c1Nc1ccc(Cl)cc1F (stereo not drawn) [Example 213, 2-(4-Chloro-2-fluoro-phenylamino)-3,4-difluoro-N-(3,3,3-trifluoro-2-hydroxy-propoxy)-benzamide]",% Inhibition @ 0.1 μM,6.2%
same,% Inhibition @ 1 μM,78.7%
"Cc1cc(I)ccc1Nc1c(C(=O)NOCC(C)(C)O)cc(Br)c(F)c1F [Example 172, 5-Bromo-3,4-difluoro-N-(2-hydroxy-2-methyl-propoxy)-2-(4-iodo-2-methyl-phenylamino)-benzamide]",% Inhibition @ 0.1 μM,41.9%
same,% Inhibition @ 1 μM,92.9%
"CCC(O)CONC(=O)c1cc(F)c(F)cc1Nc1ccc(I)cc1F (stereo not drawn) [Example 115, 4,5-Difluoro-2-(2-fluoro-4-iodo-phenylamino)-N-(2-hydroxy-butoxy)-benzamide]",% Inhibition @ 0.1 μM,94.8%
same,% Inhibition @ 1 μM,98.5%
"COCCONC(=O)c1cc(Cl)c(F)c(F)c1Nc1ccc(I)cc1Cl [Example 140, 5-Chloro-2-(2-chloro-4-iodo-phenylamino)-3,4-difluoro-N-(2-methoxy-ethoxy)-benzamide]",pIC50,6.35
"O=C(NOCC(O)C(F)(F)F)c1cc(Cl)c(F)c(F)c1Nc1ccc(F)cc1F (stereo not drawn) [Example 211, 5-Chloro-2-(2,4-difluoro-phenylamino)-3,4-difluoro-N-(3,3,3-trifluoro-2-hydroxy-propoxy)-benzamide]",% Inhibition @ 1 μM,35%
same,% Inhibition @ 10 μM,71.9%
"COCC(O)CONC(=O)c1ccc(F)c(F)c1Nc1ccc(Cl)cc1F (stereo not drawn) [Example 229, 2-(4-Chloro-2-fluoro-phenylamino)-3,4-difluoro-N-(2-hydroxy-3-methoxy-propoxy)-benzamide]",% Inhibition @ 0.1 μM,9.8%
same,% Inhibition @ 1 μM,76.5%
"COCCONC(=O)c1cc(F)c(F)c(F)c1Nc1ccc(I)cc1C [Example 138, 3,4,5-Trifluoro-2-(4-iodo-2-methyl-phenylamino)-N-(2-methoxy-ethoxy)-benzamide]",% Inhibition @ 0.1 μM,0%
same,% Inhibition @ 1 μM,19.6%
"O=C(NOCCCO)c1cc(F)c(F)c(F)c1Nc1ccc(I)cc1Cl [Example 101, 2-(2-Chloro-4-iodo-phenylamino)-3,4,5-trifluoro-N-(3-hydroxy-propoxy)-benzamide]",pIC50,6.65
"CCC(O)CONC(=O)c1cc(Cl)c(F)c(F)c1Nc1ccc(I)cc1F (stereo not drawn) [Example 114, 5-Chloro-3,4-difluoro-2-(2-fluoro-4-iodo-phenylamino)-N-(2-hydroxy-butoxy)-benzamide]",% Inhibition @ 0.1 μM,90.5%
same,% Inhibition @ 1 μM,97.3%
"O=C(NOCC(O)CO)c1cc(Br)c(F)c(F)c1Nc1ccc(I)cc1Cl (stereo not drawn) [Example 88, 5-Bromo-2-(2-chloro-4-iodo-phenylamino)-N-(2,3-dihydroxy-propoxy)-3,4-difluoro-benzamide]",pIC50,6.96
"COCCOCCONC(=O)c1ccc(F)c(F)c1Nc1ccc(I)cc1Cl [Example 207, 2-(2-Chloro-4-iodo-phenylamino)-3,4-difluoro-N-[2-(2-methoxy-ethoxy)-ethoxy]-benzamide]",pIC50,6.67
